# Like-named read-outs stand apart in the source and are kept apart here.
# Columns and labels:
# [1] = molecular target: T1, DNA-PK (Homo sapiens, UniProt P78527); experiment: DNA-PK Assay for Biochemical Enzymatic Inhibition (ADP Glo Kinase assay)
# T1 construct: purchased Invitrogen PR9107A
# Protocol: A biochemical assay was performed to identify IC50 values against DNA-PK activity in a two-step reaction with a kinase reaction followed by ADP Glo™ Kinase assay Kit (Promega V9102).
# Three-fold serial dilutions of compounds in DMSO were prepared in kinase assay buffer (50 mM HEPES pH 7.5, 20 mM MgCl2, 100 mM KCl, 50 μM DTT, 10 μg/ml calf thymus DNA, 0.01% Tween 20). Kinase assay buffer was used to prepare compound treatments to 0.02% DMSO (dimethyl sulphoxide) content. DMSO controls were prepared to produce a maximum and minimum luminescence signal for normalization. Substrate (Anaspec, AS-60210-5) and ATP (Promega V9102) and ATP mix was prepared by dilution in kinase assay buffer for 434.4 μM and 64.4 μM final assay concentrations, respectively. Compounds and control were added to 25 ng DNA-PK enzyme (Invitrogen, PR9107A) diluted in kinase buffer in assay plate (Corning 267459) and incubated for 15 minutes at room temperature prior to addition of substrate and ATP mix.
# Throughout the assay, each time a reagent was added to the microplate, it was centrifuged for 1 minute at 1300 rcf. All reagents were added, and incubations carried out at room temperature. The reaction was then incubated for 60 minutes. ADP-ATP standards at 0, 4, 10, 40, 80, and 100% ADP (prepared as specified in the ADP Glo™ Kinase assay kit) were also added to the microplate at a volume equal to the total kinase reaction. The ADP Glo™ Kinase Assay kit was then used to quantify DNA-PK activity: following the 60-minute incubation, a 1:1 volume of ADP Glo reagent was added to all wells, then following a further 45-minute incubation, a 1:1 volume of Kinase Detection Reagent was added to all wells. After this two-step assay, plates were incubated in a Synergy-Neo2 plate reader for 30 minutes with gentle shaking, followed by endpoint luminescent read Luminescence data was normalized by subtracting the background signal and expressing all background-adjusted values as a percentage of the average maximum signal. The data was then expressed as percent inhibition by subtracting from 100% (i.e. maximum luminescent signal will be 0% inhibition) and the resulting data plotted against ten concentration points on a logarithmic scale, using GraphPad Prism. Non-linear regression analysis was performed on each concentration response curve and the log [inhibitor] vs response—variable slope (four parameters) equation was selected to generate IC50 values.
# [2] = molecular target: T2, DNA-PK phosphorylation at Serine 2056 (Homo sapiens, UniProt P78527); experiment: Cellular Assay for Inhibition of DNA-PK Phosphorylation at Serine 2056 (FaDu cells, neocarzinostatin, sandwich ELISA); assay type: cell-based
# T2 construct: host or cells: FaDu
# Summary of the method: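 Readout was pSer2056 and total DNA-PK, measured by sandwich ELISA on protein-normalized lysates. Prior to lysis, compound was applied to FaDu cells for 1 h (0.3% DMSO), followed by 2 h of 1 μg/mL neocarzinostatin. IC50 values were fitted from log concentration versus % inhibition normalized to DMSO and NCS controls.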
# [3] = molecular target: T3, pDNA-PK ser2056 induction in HCT116 spheroids (Homo sapiens, UniProt P78527); experiment: Multicellular tumour spheroid + radiation, pDNA-PK inhibition, HCT116; assay type: cell-based; conditions: 20 Gy
# T3 construct: endogenous in cells; host or cells: HCT116 multicellular tumour spheroids
# Protocol: Multicellular tumour spheroids determination of compound inhibition of pDNA-PK induction following radiation. Tumour spheroids were grown to approximately 0.5 mm in diameter and irradiated with 20 Gy in combination with inhibitor test compounds to determine their potency. Inhibitor concentration for 50% reduction in pDNA-PK induction (IC50) was determined via immunohistochemical staining in spheroid cryosections taken 2 hours following radiation.
# Spheroid, Cell Line: […], Immunohistochemical endpoint, pDNA-PK inhibition, EC50 in μm.
# (§1) Spheroid+radiation pDNA-PK. Radiation: 20 Gy. Drug: serial dilution 5 or 10 μM down to 3.5 nM (11 wells). Spheroids: 3-6 spheroids per well (300-500 μm diameter). 20% O2 and 5% CO2. 96 well plate format.
# Protocol: pre-incubate 1 hours with drug, irradiate with 20 Gy, post-incubate 2 hours with drug, freeze and cryosection ×3 replicates.
# Endpoint: fluorescent immunostin pDNA-PK ser2056 and image on microscope.
# Analysis: determine EC50 concentration that decreases pDNA-PK induction by 50% after radiation.
# Multicellular tumour spheroids determination of compound inhibition of pDNA-PK induction following radiation. Tumour spheroids were grown to approximately 0.5 mm in diameter and irradiated with 20 Gy in combination with inhibitor test compounds to determine their potency. Inhibitor concentration for 50% reduction in pDNA-PK induction (IC50) was determined via immunohistochemical staining in spheroid cryosections taken 2 hours following radiation. For cell survival endpoint 8 Gy radiation was used and 3 hours following radiation spheroids were dissociated, counted and plated for colony forming endpoint.
# as §1, with “format. Endpoint: fluorescent immunostain pDNA-PK ser2056 and image on microscope. Analysis: determine EC50 concentrations that decreases pDNA-PK induction […] after irradiation.” for “format.”
# Multicellular tumour spheroids were used to determine potency of test compounds in a 3D tissue environment using inhibition of pDNA-PK induction following radiation or cell survival as the endpoint. For the pDNA-PK endpoint HCT116 or FaDU tumour spheroids were grown to approximately 0.5 mm in diameter and irradiated with 20 Gy in combination with inhibitor test compounds to determine their potency. Experiments were carried out in 96 well plates containing 0.7 mls of MEM media containing 10% FBS and 10 mM glucose under 20% O2 & 5% CO2 at 37° C. Following dilution of compounds 1:1000 from DMSO stocks, compounds were serially diluted from 10 μM down to 3.5 nM and 5-10 spheroids added. 96 well plates were constantly stirred to avoid spheroids settling during the course of the experiment. The inhibitor concentration for 50% reduction in pDNA-PK induction (EC50) was determined via immunohistochemical staining in spheroid cryosections taken 2 hours following radiation using anti-pDNA-PK (ser 2056) and fixed immediately in formalin following sectioning. For cell survival endpoint 8 Gy radiation was used and, 3 hours following radiation, spheroids were dissociated, counted and plated for colony forming endpoint. Data presented in the table compound potency as EC50 [μM].
# [4] = Example 7, spheroid, cell line HCT115 [sic], 20% O2, read-out: EC50 (pDNA-PK inhibition, immunohistochemical endpoint)
# [5] = Example 8, spheroid, read-out: Cell line: HCT116 Immunohistochemical endpoint pDNA-PK inhibition EC50
# [6] = Example 9 Study 2, 20% O2, read-out: Spheroid Cell line: HCT116 Immunohistochemical endpoint pDNA-PK inhibition EC50
SMILES,IC50 ([1]; Table 1) [µM],IC50 ([2]; Table 1) [µM],"EC50 [3, 4] [µM]","EC50 [3, 5] [µM]","EC50 [3, 6] [µM]",IC50 ([1]; Table 2) [µM],IC50 ([2]; Table 2) [µM]
"FC(F)(F)c1ccnn1[C@H]1CC[C@@H](Oc2nc(N3CCOCC3)cc3ncccc23)CC1 [Compound 17d, 4-(5-(((1s,4s)-4-(5-(trifluoromethyl)-1H-pyrazol-1-yl)cyclohexyl)oxy)-1,6-naphthyridin-7-yl)morpholine]",0.001 to 0.01,0.1 to 1,,,,,
"Cc1cn([C@H]2CC[C@@H](Oc3nc(N4CCOCC4)cc4ncccc34)CC2)nc1C(F)(F)F [Compound 17e, 4-(5-(((1s,4s)-4-(4-methyl-3-(trifluoromethyl)-1H-pyrazol-1-yl)cyclohexyl)oxy)-1,6-naphthyridin-7-yl)morpholine]",0.001 to 0.01,0.1 to 1,1 to 10,1 to 10,,,
"Cc1cnn([C@H]2CC[C@@H](Oc3nc(N4CCOCC4)cc4ncccc34)CC2)c1C(F)(F)F [Compound 17f, 4-(5-(((1s,4s)-4-(4-methyl-5-(trifluoromethyl)-1H-pyrazol-1-yl)cyclohexyl)oxy)-1,6-naphthyridin-7-yl)morpholine]",0.001 to 0.01,10 to 30,10 to 100,10 to 100,,,
"Cc1c(C(F)(F)F)cnn1[C@H]1CC[C@@H](Oc2nc(N3CCOCC3)cc3ncccc23)CC1 [Compound 17h, 4-(5-(((1s,4s)-4-(5-methyl-4-(trifluoromethyl)-1H-pyrazol-1-yl)cyclohexyl)oxy)-1,6-naphthyridin-7-yl)morpholine]",0.001 to 0.01,1 to 10,10 to 100,10 to 100,10 to 100,,
"CCOCCOc1cnc(N[C@H]2CC[C@@H](Oc3nc(N4CCOCC4)cc4ncc(Br)cc34)CC2)nc1 [Compound 18b, N-((1s,4s)-4-((3-Bromo-7-morpholino-1,6-naphthyridin-5-yl)oxy)cyclohexyl)-5-(2-ethoxyethoxy)pyrimidin-2-amine]",0.001 to 0.01,10 to 30,1 to 10,1 to 10,1 to 10,,
"Cn1ccc(N[C@H]2CC[C@@H](Oc3nc(N4CCOCC4)cc4ncccc34)CC2)n1 [Compound 30, 1-methyl-N-((1s,4s)-4-((7-morpholino-1,6-naphthyridin-5-yl)oxy)cyclohexyl)-1H-pyrazol-3-amine]",0.001 to 0.01,0.1 to 1,10 to 100,,10 to 100,,
"CC(C)c1cnc(N[C@H]2CC[C@@H](Oc3nc(N4CCOCC4)cc4ncccc34)CC2)nc1 [Compound 33, 5-isopropyl-N-((1s,4s)-4-((7-morpholino-1,6-naphthyridin-5-yl)oxy)cyclohexyl)pyrimidin-2-amine]",0.001 to 0.01,< 0.1,1 to 10,,1 to 10,,
"Cc1nccnc1N[C@H]1CC[C@@H](Oc2nc(N3CCOCC3)cc3ncccc23)CC1 [Compound 36, 3-methyl-N-((1s,4s)-4-((7-morpholino-1,6-naphthyridin-5-yl)oxy)cyclohexyl)pyrazin-2-amine]",0.0005 to 0.001,0.1 to 1,1 to 10,,1 to 10,,
"Cc1nccc(N[C@H]2CC[C@@H](Oc3nc(N4CCOCC4)cc4ncccc34)CC2)n1 [Compound 37, 2-methyl-N-((1s,4s)-4-((7-morpholino-1,6-naphthyridin-5-yl)oxy)cyclohexyl)pyrimidin-4-amine]",< 0.0005,0.1 to 1,,,,,
"COc1nccnc1N[C@H]1CC[C@@H](Oc2nc(N3CCOCC3)cc3ncccc23)CC1 [Compound 39, 3-methoxy-N-((1s,4s)-4-((7-morpholino-1,6-naphthyridin-5-yl)oxy)cyclohexyl)pyrazin-2-amine]",< 0.0005,0.1 to 1,1 to 10,,1 to 10,,
"c1ccc(CN[C@H]2CC[C@@H](Oc3nc(N4CCOCC4)cc4ncccc34)CC2)cc1 [Compound 155, (1s,4s)-N-benzyl-4-((7-morpholino-1,6-naphthyridin-5-yl)oxy)cyclohexan-1-amine]",0.01 to 0.15,10 to 30,,,,,
"CN(c1cnc2cc(N3CCOCC3)nc(O[C@H]3CC[C@@H](N(C)c4ncccn4)CC3)c2c1)S(C)(=O)=O [Compound 199, N-methyl-N-(5-(((1s,4s)-4-(methyl(pyrimidin-2-yl)amino)cyclohexyl)oxy)-7-morpholino-1,6-naphthyridin-3-yl)methanesulfonamide]",0.01 to 0.15,,,,,,
"CS(=O)(=O)Nc1cnc2cc(N3CCOCC3)nc(O[C@H]3CC[C@@H](Nc4ncc(C(N)=O)cn4)CC3)c2c1 [LFA028, 2-[[4-[[3-(Methanesulfonamido)-7-morpholino-1,6-naphthyridin-5-yl]oxy]cyclohexyl]amino]pyrimidine-5-carboxamide]",,,,,,0.0005 to 0.001,1 to 10
"CNC(=O)c1cnc(N[C@H]2CC[C@@H](Oc3nc(N4CCOCC4)cc4ncc(NS(C)(=O)=O)cc34)CC2)nc1 [LFA029, 2-[[4-[[3-(Methanesulfonamido)-7-morpholino-1,6-naphthyridin-5-yl]oxy]cyclohexyl]amino]-N-methyl-pyrimidine-5-carboxamide]",,,,,,< 0.0005,0.1 to 1
"CN(C)C(=O)c1cnc(N[C@H]2CC[C@@H](Oc3nc(N4CCOCC4)cc4ncc(NS(C)(=O)=O)cc34)CC2)nc1 [LFA030, 2-[[4-[[3-(Methanesulfonamido)-7-morpholino-1,6-naphthyridin-5-yl]oxy]cyclohexyl]amino]-N,N-dimethyl-pyrimidine-5-carboxamide]",,,,,,< 0.0005,0.1 to 1
"Nc1cnc2cc(N3CCOCC3)nc(O[C@H]3CC[C@@H](Nc4ncccn4)CC3)c2c1 [LFA107, 7-morpholino-5-[4-(pyrimidin-2-ylamino)cyclohexoxy]-1,6-naphthyridin-3-amine]",,,,,,< 0.0005,< 0.1
